According to US20200163882A1, “Solid Pharmaceutical Compositions Of Androgen Receptor Antagonists” (Lek Pharmaceuticals d.d., priority 2014, published 2020):

Key:
[1] = cited from earlier work; for Solubility in water: water between pH 1 and 11
[2] = physiologic pH range; cited from earlier work
[3] = first clinical trials, similar daily doses; cited from earlier work
[4] = Solubility of Enzalutamide in surfactants; format: physicochemical
Protocol: In the first reference test formulation, 12 mg of Enzalutamide was completely dissolved in 0.27 ml of Labrasol. In second reference test formulations 12 mg of Enzalutamide is completely dissolved in 0.27 ml of Tween 80. In third reference test formulation, 12 mg of Enzalutamide is completely dissolved in 0.27 ml of Tween 80 and 0.15 mg of HPMC has been added. It should be noted that solubility of Enzalutamide is about the same in Tween and in Labrasol ([…] of Enzalutamide per 1 ml of either Tween 80 or Labrasol). The three test formulations were dissolved in 15 ml of pH 6.8 phosphate buffer and Enzalutamide concentration was measured at time points from 10 to 360 minutes.

Solubility of Enzalutamide in Labrasol ([4]; Labrasol)	Solubility of Enzalutamide in Tween 80 ([4]; Tween 80)	Compound	Solubility in N-methyl-2-pyrrolidone (NMP) [1]	Solubility in absolute ethanol [1]	Solubility in acetone [1]	Solubility in water [1]	Ionisation state [2]	Effectiveness versus Enzalutamide [3]
–	–	CNC(=O)c1ccc(N2C(=S)N(c3cnc(C#N)c(C(F)(F)F)c3)C(=O)C23CCC3)cc1F [ARN-509, 4-[7-[6-Cyano-5-(trifluoromethyl)pyridin-3-yl]-8-oxo-6-thioxo-5,7-diazaspiro[3.4]octan-5-yl]-2-fluoro-N-methylbenzamide]	soluble	sparingly soluble	soluble	practically insoluble	remain unionized	more effective than Enzalutamide
about 36 mg per 1 ml	about 36 mg per 1 ml	CNC(=O)c1ccc(N2C(=S)N(c3ccc(C#N)c(C(F)(F)F)c3)C(=O)C2(C)C)cc1F [Enzalutamide, 4-{3-[4-Cyano-3-(trifluoromethyl)phenyl]-5,5-dimethyl-4-oxo-2-thioxoimidazolidin-1-yl}-2-fluoro-N-methylbenzamide]	soluble	sparingly soluble	soluble	practically insoluble	remain unionized	–
